For one assay, the target named is T1, human MR (Homo sapiens, UniProt P08235).
T1 construct: expressed in transfected cells; host or cells: CV-1 (African Green Monkey Kidney Cells), transiently transfected with pCMX-GAL4-MR
T1 sequence (P08235 671-984): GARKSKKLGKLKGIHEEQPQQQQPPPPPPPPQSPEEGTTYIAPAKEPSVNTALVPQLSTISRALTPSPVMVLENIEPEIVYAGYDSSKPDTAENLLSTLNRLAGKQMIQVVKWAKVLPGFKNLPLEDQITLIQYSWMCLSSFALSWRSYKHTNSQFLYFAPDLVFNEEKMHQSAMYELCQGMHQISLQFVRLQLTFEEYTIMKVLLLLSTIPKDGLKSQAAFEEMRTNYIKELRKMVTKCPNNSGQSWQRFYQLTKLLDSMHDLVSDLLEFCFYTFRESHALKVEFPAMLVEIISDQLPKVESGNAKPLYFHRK
In words: GAL4-MR cell based assay, antagonist format. How it is done:
Compound activity was determined in a cell-based assay using a GAL4-MR chimera to identify compounds with the ability to modulate MR activity.
The pCMX-GAL4-MR expression plasmid was constructed by cloning nucleotides encoding amino acids 671 to 984 of human MR (see GenBank sequence AAA59571) into the vector pCMX-GAL4 (Perlmann et al., 1993,Genes & Development 7:1411-1422) comprising nucleotides encoding for amino acids 1-147 of the GAL4 DNA binding domain.
The TK-MH 100x4-Luc (GAL4UAS-TK-Luciferase) reporter construct was constructed by insertion of four copies of the Gal4 UAS (Kang et al. 1993, J. Biol. Chem. 268:9629-9635) into the Hind III site of TK-Luc. The parental plasmid, TK-Luc, was prepared by insertion of the Herpes simplex virus thymidine kinase gene promoter (−105 to +51) obtained from the plasmid pBLCAT2 by digestion with HindIII and XhoI (described in Luckow et al., 1987, Nuc. Acid. Res. 15:5490) into the plasmid MMTV-LUC described by Hollenberg and Evans, 1988, Cell 55:899-906) after removal of MMTV-LTR promoter sequence from MMTV-LUC via digestion with HindIII and XhoI. Correct cloning was confirmed by restriction digestion and/or sequencing.
Assays were performed using CV-1 (African Green Monkey Kidney Cells) (ATCC) cells grown in T175 flasks at a density of 3×10^6 cells/flask in DMEM with 5% FBS. Cells were transfected one day after plating at 70-80 percent confluency with a DNA mixture containing (per T175 flask) 9 […] pCMX-GAL4-MR, 9 μg TK-MH100x4-Luc, and 2 μg pCMX β-Gal using the transfection reagent FuGENE6 (Roche Molecular Biochemicals, Indianapolis, Ind.) following recommended protocols and instructions provided by the manufacturer, and incubated with transfection reagents for 5 hours at 37° C.
Transfected cells were trypsinized, resuspended in media, and 45 μL was added to assay plates at a density of approximately 5,000 cells/well using a MultiDrop dispenser (MTX Lab Systems, Inc., VA). The assay plates containing both compounds and screening cells were incubated for approximately 20 hours at 37° C. and 5% CO2 in a tissue culture incubator.
After incubation of the transfected cells with compounds, Lysis buffer (1% Triton X-100, 10% Glycerol, 5 mM DTT, 1 mM EGTA, 25 mM Tricine, pH 7.8) and Luciferin assay buffer (0.73 mM ATP, 22.3 mM Tricine, 0.11 mM EDTA, 33.3 mM DTT, 0.2M MgSO4, 11 mM Luciferin, 6.1 mM Coenzyme A, 0.01 mM HEPES, pH 7.8) were prepared. Media was removed from the plates and lysis buffer and luciferin assay buffer mixed in a 1:1 ratio and then 30 μl of the mixture was added to each well using a Multidrop dispenser. Plates were read on the Northstar (Applied Biosystems, Foster City, Calif.) and data was analyzed using ActivityBase (ID Business Solutions, Ltd., Guildford, Surrey, UK). If required, luciferase values may be normalized for transfection efficiency by measuring β-galactosidase activity based on expression from the pCMX-βGal expression plasmid as described previously (Willy et al., 1995, Gene & Development, 9:1033-1045).
(§1) The following table provides in vitro MR activity data of representative compounds described in the Examples. […] The “+” mark under the selectivity column is given to those compounds having greater than ten-fold antagonist activity against MR compared to at least one nuclear receptor selected from AR, ERα, GR and PR, as determined from the GAL4-AR, GAL4-ERα, GAL4-GR and GAL4-PR assays. The “++” mark under the selectivity column identifies those compounds having greater than ten-fold antagonist activity against MR compared to the four nuclear receptors AR, ERα, GR and PR, as determined from the GAL4-AR, GAL4-ERα, GAL4-GR and GAL4-PR assays.

Another assay relates to AR, ERα, GR and PR. Description: selectivity assays GAL4-AR, GAL4-ERα, GAL4-GR and GAL4-PR, antagonist mode. The following applies: antagonist activity against MR compared to AR. The format is cell-based. How it is done:
In certain cases, compounds were also evaluated for activity in selectivity assays with other steroid hormone receptor members, including AR, ER, GR and PR, as well as GAL4 alone. Steroid receptors used for selectivity assays were essentially generated as described above for pCMX-GAL4-MR, and comprised the LBD and a portion of the hinge region of the nuclear receptor of interest cloned in frame into the vector pCMX-GAL4 (Perlmann et al., 1993,Genes & Development 7:1411-1422) as described above.
Assays run in antagonist mode included agonists as follows: AR; 25 nM dihydrotestosterone (DHT), ER; 4.5 nM estradiol, GR; 20 nM dexamethasone, and PR; 2 nM medroxyprogesterone (MPA), respectively. Assays run in agonist mode contained no supplemental compounds.
as §1

The results in this text go back to US20110144128A1, “Heterocyclic Carboxamide Compounds as Steroid Nuclear Receptors Ligands” (EXELIXIS, INC., priority 2005, published 2011).

Structures are written as SMILES.

The term IC50 denotes the concentration needed to halve the response being measured. The low end stands for higher potency, the high end for lower potency.

`Cc1cc(C(=O)Nc2ccc(S(=O)(=O)C(C)C)cc2)c(C)n1-c1ccccc1C(F)(F)F` [2,5-dimethyl-1-(2-trifluoromethyl-phenyl)-1H-pyrrole-3-carboxylic acid [4-(propane-2-sulfonyl)-phenyl]-amide] displayed a half-maximal inhibitory concentration (IC50) against human MR of 500 to 1000 nM. In addition, in the assay with AR, ERα, GR and PR, the Selectivity result is “+ (greater than ten-fold antagonist activity against MR compared to at least one nuclear receptor selected from AR, ERα, GR and PR)”.

On to `CCNS(=O)(=O)c1ccc(NC(=O)c2cc(C)n(-c3ccccc3C(F)(F)F)c2C)cc1` [2,5-dimethyl-1-[2-(trifluoromethyl)phenyl]-1H-pyrrole-3-carboxylic acid (4-ethylsulfamoyl-phenyl)-amide], for which the IC50 against human MR is 1000 to 5000 nM. Also, the Selectivity entry in the assay with AR, ERα, GR and PR is “+ (greater than ten-fold antagonist activity against MR compared to at least one nuclear receptor selected from AR, ERα, GR and PR)”.

Compound `CCc1nc(C(=O)Nc2ccc(S(C)(=O)=O)cc2)c(C)n1-c1ccccc1C(F)(F)F` [2-ethyl-5-methyl-1-(2-trifluoromethyl-phenyl)-1H-imidazole-4-carboxylic acid (4-methanesulfonyl-phenyl)-amide] yielded a 50% inhibitory concentration (IC50) on human MR of under 500 nM. For the same compound, in the assay with AR, ERα, GR and PR, the Selectivity entry was “++ (greater than ten-fold antagonist activity against MR compared to the four nuclear receptors AR, ERα, GR and PR)”.

Consider `Cc1[nH]c(C(=O)Nc2ccc(S(C)(=O)=O)cc2)c(C)c1-c1ccccc1C(F)(F)F` [3,5-dimethyl-4-(2-trifluoromethyl-phenyl)-1H-pyrrole-2-carboxylic acid (4-methanesulfonyl-phenyl)-amide], for which the IC50 on human MR was under 500 nM. Besides, the Selectivity result in the assay on AR, ERα, GR and PR is “++ (greater than ten-fold antagonist activity against MR compared to the four nuclear receptors AR, ERα, GR and PR)”.

In the case of `Cc1c(C(=O)Nc2ccc(S(C)(=O)=O)cc2)cc(-c2ccc(F)cc2)n1-c1ccccc1C(F)(F)F` [5-(4-fluorophenyl)-2-methyl-1-(2-trifluoromethylphenyl)-1H-pyrrole-3-carboxylic acid (4-methanesulfonyl-phenyl) amide], the 50% inhibitory concentration (IC50) against human MR is under 500 nM. Also, in the assay on AR, ERα, GR and PR, the Selectivity result was “++ (greater than ten-fold antagonist activity against MR compared to the four nuclear receptors AR, ERα, GR and PR)”.
